Measurements as given in patent publication US20240335444A1, “MODULATORS OF BCL6 PROTEOLYSIS AND ASSOCIATED METHODS OF USE” (Arvinas Operations, Inc., priority 2023, published 2024).

Experiments:
OCI-Ly1 = experiment: Tumor growth of DLBCL cell line derived xenograft model OCI-Ly1; type: in vivo, mice; details: OCI-Ly1 xenograft, dosing dependent
Description: Mice bearing subcutaneous tumors were orally (po) administered vehicle or Compound A at 1, 3, 10, or 30 mg/kg daily for 22 days (qd×22). Dosing began with tumors at an average of 140 mm^3. […] Statistical analyses were performed using 2-way ANOVA: p<0.0001 (****). Error bars represent standard error of the mean (±SEM).
(§1) Mice bearing subcutaneous tumors were orally (po) administered vehicle or Compound A at 1, 3, or 10 mg/kg bi-daily for 23 days (bid×23). Dosing began with tumors at an average of 170 mm^3. […] FIG. 7C depicts tumor lysate BCL6 protein levels 16-hours post-last dose analyzed by western blotting. Individual tumor BCL6 levels are shown in a scatter plot, mean is represented by the bar, determined by densitometry, normalized to GAPDH loading controls, and shown as a percentage of vehicle. Percent BCL6 degradation (%) relative to vehicle is shown above each arm. Statistical analyses were performed using 2-way ANOVA: p<0.0001 (****). Error bars represent standard error of the mean (±SEM).

LY2214 = experiment: PDX model of DLBCL, high-grade B-cell lymphoma (HGBCL, LY2214); type: in vivo, NOD/SCID or BALB/c Nude Mice; details: 30 mg/kg PO QD×21, compared to vehicle
Description: (§2) HuPrime® Lymphoma Xenograft Models in NOD/SCID or BALB/c Nude Mice, 4/group, were dosed orally (per os, PO) daily for 21 days (QD×21) and tumor measurements were acquired twice per week. […] Data points represent the mean per group and error bars the standard error of the mean.

LY3148 = experiment: PDX model of Burkitt's lymphoma (LY3148); type: in vivo, NOD/SCID or BALB/c Nude Mice; details: 30 mg/kg PO QD×21
Description: as §2

LY12962 = experiment: PDX model of NHL NOS (LY12962); type: in vivo, NOD/SCID or BALB/c Nude Mice; details: 30 mg/kg PO QD×21
Description: as §2

[1] = Body weight of mice in the PDX models; type: in vivo, NOD/SCID or BALB/c Nude Mice; details: 30 mg/kg PO QD×21
Description: as §2

BCL6 protein [2] = target: T1, BCL6 protein (Homo sapiens, UniProt P41182); experiment: Tumor lysate BCL6 protein levels in OCI-Ly1 xenograft tumor tissue (western blotting, densitometry); type: in vivo, mice; parameters: from tissue; host or cells: subcutaneous xenograft tumors of OCI-Ly1, OCI-Ly7, SU-DHL-2 or OCI-Ly10 cells in mice
Description: Tumor lysate BCL6 protein levels in OCI-Ly1 cell line xenograft tumor tissue was measured following a treatment time-course with Compound A. A single dose of Compound A was orally administered in a vehicle of 40% hydroxypropyl-b-cyclodextrin in pH 3.0 citrate buffer when tumors reached 200-400 mm^3. Tumors were harvested at the indicated timepoints. Tumor tissue lysates were analyzed using western immunoblotting procedures and densitometry. BCL6 levels are normalized to a GAPDH loading control and presented as a percentage (%) of the average of BCL6 levels in the vehicle control group. Percent BCL6 degradation (%) relative to vehicle is shown above each arm. Cells (1×10^7 cells in 50% matrigel+50% RMPI-1640 (phenol red-free)/100 μl/mouse) were implanted on the right flank subcutaneously.
as §1

BCL6 protein [3] = target: T1, BCL6 protein; experiment: Tumor lysate BCL6 protein levels in SU-DHL-2 xenograft (western blotting); type: in vivo, mice; parameters: from tissue; host or cells: subcutaneous xenograft tumors of OCI-Ly1, OCI-Ly7, SU-DHL-2 or OCI-Ly10 cells in mice; details: 16-hours post-last dose
Description: Mice bearing subcutaneous tumors were orally (po) administered vehicle or Compound A at 3, 10, or 30 mg/kg bi-daily for 27 days (bid×27) or 30 mg/kg daily for 27 days (qd×27). Dosing began with tumors at an average of 180 mm^3. […] FIG. 9C depicts tumor lysate BCL6 protein levels 16-hours post-last dose analyzed by western blotting. Individual tumor BCL6 levels are shown in a scatter plot, mean is represented by the bar, determined by densitometry, normalized to GAPDH loading controls, and shown as a percentage of vehicle. Percent BCL6 degradation (%) relative to vehicle is shown above each arm. Statistical analyses were performed using 2-way ANOVA: p<0.0001 (****). Error bars represent standard error of the mean (±SEM).

BCL6 protein [4] = target: T1, BCL6 protein; experiment: BCL6 protein degradation in DLBCL cell lines measured by ELISA; type: cell-based; parameters: Degradation of BCL6 protein in DLBCL cell lines were measured by ELISA; endogenous in cells; host or cells: OCI-Ly1, Farage, SU-DHL-4, SU-DHL-6, OCI-Ly7, SU-DHL-2, OCI-Ly10

SMILES: CNC(=O)COc1cc2cc(Nc3nc(N4CCC(O[C@H]5C[C@H](N6CCC(c7ccc8c(c7F)CN(C7CCC(=O)NC7=O)C8=O)CC6)C5)CC4)ncc3Cl)ccc2n(C(C)C)c1=O (stereo partly shown) [Compound A, 2-({6-[(5-chloro-2-{4-[(1r,3r)-3-{4-[2-(2,6-dioxopiperidin-3-yl)-4-fluoro-1-oxo-2,3-dihydro-1H-isoindol-5-yl]piperidin-1-yl}cyclobutoxy]piperidin-1-yl}pyrimidin-4-yl)amino]-2-oxo-1-(propan-2-yl)-1,2-dihydroquinolin-3-yl}oxy)-N-methylacetamide]
- Tumor growth (OCI-Ly1; po 1, 3, 10 or 30 mg/kg daily for 22 days (qd×22)): inhibits the tumor growth
- Tumor growth (OCI-Ly1; po 1, 3 or 10 mg/kg bi-daily for 23 days (bid×23)): inhibits the tumor growth
- Change in mean tumor volume (LY2214): tumor regression
- Change in mean tumor volume (LY3148): tumor regressions
- Change in mean tumor volume (LY12962): tumor regressions
- Body weight loss [1]: No significant body weight loss
- Tumor lysate BCL6 protein level (BCL6 protein [2]; bid×23, 16-hours post-last dose (FIG. 7C)): dose-dependent degradation of BCL6 protein
- Time BCL6 protein was kept down (BCL6 protein [2]; single oral dose (FIG. 5)): up to 36 hours
- Tumor lysate BCL6 protein level (BCL6 protein [2]; single oral dose, time-course (FIG. 5)): degraded BCL6 protein rapidly
- Tumor lysate BCL6 protein level (BCL6 protein [3]): dose-dependent degradation of BCL6 protein
- BCL6 protein degradation (BCL6 protein [4]; ABC DLBCL cell lines SU-DHL-2, OCI-Ly10, 24 hours (FIG. 2C)): potent BCL6 protein degradation
- BCL6 protein degradation (BCL6 protein [4]; GCB DLBCL cell lines Farage, SU-DHL-4, SU-DHL-6, OCI-Ly7, 24 hours (FIG. 2B)): potent BCL6 protein degradation
- BCL6 protein degradation (BCL6 protein [4]; OCI-Ly1 cell line, 24-hours treatment, compared to E3-binding deficient analogue (FIG. 2A)): potent BCL6 protein degradation
